Data on 13 compounds can be found in patent publication US7071187B2, “Naphthyridine derivatives” (Otsuka Pharmaceutical Factory, Inc., priority 2001, dated 2006).

Each structure is given as a SMILES string.

Data set [1] relates to excised ilea of Hartley male guinea pigs. Nature of the data set: Pharmacological Test 2: adenosine enhancing effect on electrically stimulated contraction of excised ileum. Conditions: guinea pig ileum, n=2. How it is done: Adenosine Enhancing Effect
The compounds obtained in Examples 1 and 34 were used as test compounds in the form of a dimethyl sulfoxide solution.
As experimental animals, Hartley male guinea pigs (purchased from CHARLES RIVER JAPAN, INC.) (that were in good general condition at least 6 days after the purchase) were used. The animals were housed in a cage under controlled conditions of temperature of 20 to 26° C. (actually measured value: 22.1 to 22.9° C.), humidity of 40–70% (actually measured value: 50.3–51.5%) and lighting of 12 hours/day (7:00–19:00). The animals had free access to food (solid diet, product name of Labo G Standard, product of Nosan Corporation) and tap water.
The following experiments were conducted using the excised ilea (n=2) of experimental animals (body weight at the time of testing: 316–388 g). The experimental animals were bled and slaughtered. […] The contraction reaction of samples was recorded on an ink-writing recorder (GRAPHTEC, SR-6211, SR-6221) through an isotonic transducer (product of NIHON KOHDEN CORPORATION, TD-112S). […]
That is, the nutrient solution was exchanged, electronic stimulation was applied to the samples 15 minutes after exchange of the nutrient solution, and, when contraction stabilized, adenosine was cumulatively added from 10^−6 M to 10^−5 M. The adenosine dose-response curve was then obtained, and the ED50 value was calculated. […]

Data set [2] deals with male S.D. rats injected with Substance P. The experiment in a line: Pharmacological Test 3: analgesic effect (Randall-Sellitto pain threshold after Substance P injection). Conditions: for analgesic effect (in words): conclusion from Table 15; for Recovery rate (%) of the pain threshold (highest recovery rate): oral, 5% gum arabic suspension 10 ml/kg, measurement point 60 minutes after Substance P injection. It counts as in vivo, rat. Here is the method:
Pharmacological Test 3 Test for Evaluating Analgesic Effect Using two groups (test group and control group) each consisting of 6-week-old male S.D. rats (7 rats in each group), the pain threshold of each rat's left hind paw was measured using an Analgesy-meter (product of Unicom) in accordance with the Randall-Sellitto method [Randall, L. O. and Sellitto, J. J., Arch. Int. Pharmacodyn., 111, 409–419 (1957)]. The value thus obtained was termed “pre-value”. One hour after the measurement of the pre-value, a 5% gum arabic suspension containing compound of the invention was orally administered to the rats of the test group in an amount of 10 ml/kg, whereas a 5% gum arabic suspension (not containing compound of the invention) was orally administered to the rats of the control group in an amount of 10 ml/kg. One hour after the oral administration, a physiological saline solution containing Substance P (25 ng/0.1 ml) was subcutaneously injected into the left hind paw of each rat. The pain threshold of each rat's left hind paw was measured in the same manner as above at predetermined time intervals after the Substance P injection. The measured value is termed the “post-value”. The recovery rate (%) of the pain threshold was calculated from the post-values and pre-values of the test group and control group, by means of the following formula: [formula]

For data set [3], the system named is streptozotocin (STZ) treated male S.D. rats. Nature of the data set: Pharmacological Test 1: therapeutic effect on diabetic neuropathy (Randall-Selitto pain threshold in STZ rats). It is filed as in vivo, rat. The conditions noted are these: 30 mg/kg orally once a day, three hours after administration, left hind paw. Here is the method:
Pharmacological Test 1 Therapeutic Effect on Diabetic Neuropathy A model group was obtained by intravenously administering 50 mg/kg streptozotocin (STZ) dissolved in 0.01 M citrate buffer solution to 8-week-old male S.D. rats. After administration, five rats were housed per cage and kept therein. Three weeks after administration of STZ, the pain threshold of each rat's left hind paw to pressure stimulation was measured by Randall-Selitto Test [Randall, L. O. and Selitto, J. J. Arch. Int. Pharmacodyn., 111, 409–419 (1957)]. The value thus obtained was termed “pre-value”. […] A 5% gum arabic solution containing the test compound was orally administered as specimen to experimental animals in one of the above three groups (test group) in such a manner that each dosage of the test compound was 30 mg/kg and the amount of administered solution was 10 ml/kg, once a day for 21 continuous days. […] On the 14th and 21st days, the pain threshold of the left hind paw of the experiment animals was measured three hours after administration. The recovery rate (%) of the pain threshold was calculated by means of the following formula: Recovery rate (%)=[(T−C)/(N−C)]×100 (wherein T is the test group average value, C is the control group average value and N is the non-treated group average value.)

The term melting point denotes the temperature of the solid-liquid transition. For the compound `Cc1cc(C)c(COCC[S+](C)c2c([O-])c3cccnc3n(Cc3ccccc3)c2=O)c(C)c1` (centres unmarked) [Example 5], the melting point is 165 to 167 °C.
Same read-out and setting: for `COc1cc(COCC[S+](C)c2c([O-])c3cccnc3n(Cc3ccccc3)c2=O)cc(OC)c1O` (centres unmarked) [Example 10] the value was 121 to 123 °C; for `C[S+](CCOCc1cc(C(F)(F)F)cc(C(F)(F)F)c1)c1c([O-])c2cccnc2n(Cc2ccccc2)c1=O` (centres unmarked) [Example 6], 157 to 159 °C.
`COc1cc(COCC[S+](C)c2c([O-])c3cccnc3n(Cc3ccccc3)c2=O)cc2c1OCO2` (centres unmarked) [Example 8]: the melting point was in the range of 84 to 87 °C.
`COc1cc(OCCC[S+](C)c2c([O-])c3cccnc3n(Cc3ccccc3)c2=O)cc(OC)c1OC` (centres unmarked) [Example 1, 1-benzyl-3-[methyl-3-(3,4,5-trimethoxyphenoxy)propylsulfonium]-1,8-naphthyridine-2(1H)-one-4-olate] registered a melting point of 147 to 149 °C. Besides, the “Adenosine enhancing effect (ED50(−)/ED50(+))” value in data set [1] (test compound concentration 10^−6 M) stood at 11.11. For the same compound, in data set [2], the “analgesic effect (in words)” value is recorded as “excellent analgesic effect” and the “Recovery rate (%) of the pain threshold (highest recovery rate)” value (“Recovery rate (%) … (highest recovery rate)” for short) worked out at 46%. Further, the “Recovery rate (%) of the pain threshold, 14th day” value in data set [3] (14th day) was determined as 46.2%. In addition, in data set [3] (21st day), the “Recovery rate (%) of the pain threshold, 21st day” value turned out to be 56.7%.
For the compound `COc1cc(COCC[S+](C)c2c([O-])c3cccnc3n(Cc3ccccc3)c2=O)cc(O)c1OC` (centres unmarked) [Example 9], the melting point was in the range of 132 to 134 °C.
Same read-out and setting: for `C[S+](CCOCc1ccc2c(c1)OCO2)c1c([O-])c2cccnc2n(Cc2ccccc2)c1=O` (centres unmarked) [Example 7] the value was 124 to 126 °C; for `C[S+](CCOCc1ccccc1)c1c([O-])c2cccnc2n(Cc2ccccc2)c1=O` (centres unmarked) [Example 2], 130 to 132 °C.
Take `CC[S+](CCCOc1cc(OC)c(OC)c(OC)c1)c1c([O-])c2cccnc2n(Cc2ccccc2)c1=O` (centres unmarked) [Example 34, 1-benzyl-3-[ethyl-3-(3,4,5-trimethoxyphenoxy)propylsulfonium]-1,8-naphthyridine-2(1H)-one-4-olate]: in data set [1] (test compound concentration 10^−5 M), the “Adenosine enhancing effect (ED50(−)/ED50(+))” value was 14.00.
Turning to `COc1cc(OCC[S+](C)c2c([O-])c3cccnc3n(C)c2=O)cc(OC)c1OC` (centres unmarked) [Example 36, 1-methyl-3-[methyl-2-(3,4,5-trimethoxyphenoxy)ethylsulfonium]-1,8-naphthyridine-2(1H)-one-4-olate], in data set [2], the “analgesic effect (in words)” value was “excellent analgesic effect” and the “Recovery rate (%) … (highest recovery rate)” value was 111%.
For the compound `C[S+](CCCOc1ccc(Cl)cc1)c1c([O-])c2cccnc2n(Cc2ccccc2)c1=O` (centres unmarked) [Example 3], the melting point is 145 to 147 °C.
Turning to `Cc1cccc(C)c1COCC[S+](C)c1c([O-])c2cccnc2n(Cc2ccccc2)c1=O` (centres unmarked) [Example 4], the melting point was 161 to 163 °C.
Consider `COc1cc(Cn2c(=O)c([S+](C)CCOc3cc(OC)c(OC)c(OC)c3)c([O-])c3cccnc32)cc(OC)c1OC` (centres unmarked) [Example 15, 1-(3,4,5-trimethoxybenzyl)-3-[methyl-2-(3,4,5-trimethoxyphenoxy)ethylsulfonium]-1,8-naphthyridine-2(1H)-one-4-olate], for which, in data set [2], the “analgesic effect (in words)” value is recorded as “excellent analgesic effect” and the “Recovery rate (%) … (highest recovery rate)” value was 39%.
